The results in this text go back to BigSolDB 2.1.

Molecules are shown by their SMILES.

For `Nc1ccc(S(=O)(=O)Nc2nccs2)cc1`, the solubility (mole fraction) (in general, solubility expressed as the solute's share of all molecules) (in n-octanol, 298.15 K) came out at 9.49e-05; the solubility (mole fraction) (in n-octanol, 303.15 K) came to 0.00013; the solubility (mole fraction) (in n-octanol, 308.15 K) was 0.000168; the solubility (mole fraction) (in n-octanol, 313.15 K) came out at 0.000206; the solubility (mole fraction) (in water, 298.15 K) came to 3.25e-05; the solubility (mole fraction) (in water, 303.15 K) is 4.33e-05. Besides, the solubility (mole fraction) reads like this: (in water, 308.15 K) 5.92e-05; (in water, 313.15 K) 7.35e-05.

As for `Nc1ccc(S(=O)(=O)Nc2ncccn2)cc1`, the solubility (mole fraction) (in n-octanol, 298.15 K) worked out at 1.39e-05; the solubility (mole fraction) (in n-octanol, 303.15 K) turned out to be 1.79e-05; the solubility (mole fraction) (in n-octanol, 308.15 K) worked out at 2.32e-05; the solubility (mole fraction) (in n-octanol, 313.15 K) is 3.09e-05; the solubility (mole fraction) (in water, 298.15 K) turned out to be 4.87e-06; the solubility (mole fraction) (in water, 303.15 K) is 5.98e-06. Also, the solubility (mole fraction) is, setting by setting: (in water, 308.15 K) 7.94e-06; (in water, 313.15 K) 1.09e-05.
